Data from PubChem BioAssay (NCI).
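All cell lines were grown in 96-well plates and treated with compound for 48 hours. At the TGI there is no net growth.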

How the values were obtained:
Test in all cases: growth of human tumour cells (NCI), 48 h
CAKI-1 renal = test system: CAKI-1 renal
HCC-2998 colon = test system: HCC-2998 colon
HCT-116 colon = test system: HCT-116 colon
HOP-62 NSCLC = test system: HOP-62 NSCLC
K-562 leukemia = test system: K-562 leukemia
MCF7 breast = test system: MCF7 breast
OVCAR-5 ovarian = test system: OVCAR-5 ovarian
RXF 393 renal = test system: RXF 393 renal
SK-MEL-5 melanoma = test system: SK-MEL-5 melanoma
SNB-19 CNS = test system: SNB-19 CNS
SNB-75 CNS = test system: SNB-75 CNS
U251 CNS = test system: U251 CNS

| Structure (SMILES) | TGI (CAKI-1 renal) | TGI (HCC-2998 colon) | TGI (HCT-116 colon) | TGI (HOP-62 NSCLC) | TGI (K-562 leukemia) | TGI (MCF7 breast) | TGI (OVCAR-5 ovarian) | TGI (RXF 393 renal) | TGI (SK-MEL-5 melanoma) | TGI (SNB-19 CNS) | TGI (SNB-75 CNS) | TGI (U251 CNS) |
| --- | --- | --- | --- | --- | --- | --- | --- | --- | --- | --- | --- | --- |
| COc1ccc(C2CCc3nc4nc(N)nc(N)c4cc3C2)cc1 (centres undefined) | > 100 µM | > 100 µM | > 100 µM | 33.9 µM | > 100 µM | 28.8 µM | > 100 µM | 37.2 µM | > 100 µM | 31.8 µM | 5.09 µM | 29.4 µM |
| NC(=O)c1cnc2sc3ccccc3n2c1=O | > 100 µM | > 100 µM | > 100 µM | > 100 µM | > 100 µM | > 100 µM | > 100 µM | > 100 µM | > 100 µM | > 100 µM | > 100 µM | – |
| C#CCNC(=O)CCC(N)C(=O)O (centres undefined) | > 100 µM | > 100 µM | > 100 µM | > 100 µM | > 100 µM | > 100 µM | > 100 µM | > 100 µM | > 100 µM | > 100 µM | > 100 µM | > 100 µM |
| COc1ccc(-c2cc(-c3ccccc3)n(C3OC(COC(C)=O)C(OC(C)=O)C(OC(C)=O)C3OC(C)=O)c(=S)c2C#N)cc1 (centres undefined) | 19 µM | > 100 µM | 19.2 µM | 14.4 µM | > 100 µM | > 100 µM | 29.2 µM | 23.2 µM | 19.4 µM | 23.1 µM | 19.2 µM | 18.7 µM |
| C=C1C(=O)OC2/C=C(\C)CC/C=C(/C)CC(OC(=O)/C(=C/CO)CO)C12 (centres undefined) | 34 µM | 41.3 µM | – | > 100 µM | > 100 µM | 48.7 µM | 36.8 µM | 23.7 µM | 31.2 µM | > 100 µM | > 100 µM | 47 µM |
| O=C(CSc1nc2ccc(I)cc2c(=O)n1Cc1ccccc1)N/N=C/c1ccccc1 | 23 µM | > 100 µM | > 100 µM | 20.9 µM | > 100 µM | > 100 µM | > 100 µM | 26.7 µM | > 100 µM | 49.1 µM | 28.6 µM | 33.3 µM |
| COc1cc2c(cc1C)NC(=O)/C2=C/c1c(Cl)[nH]c2cc(C)c(OC)cc12 | 21.2 µM | 11 µM | 18.1 µM | 23.2 µM | > 41.6 µM | 20.4 µM | 25.8 µM | 22.1 µM | 10.6 µM | 20.4 µM | 11.8 µM | 15.3 µM |
| O=C1CCc2c3c(c4c([nH]c5ccccc54)c2CC1)C(=O)NC3=O | 21.2 µM | > 100 µM | > 100 µM | > 100 µM | > 100 µM | 81 µM | > 100 µM | 32.2 µM | 5.77 µM | 44.4 µM | 0.61 µM | > 100 µM |
| CCN(CC)CCn1ncc2ccc3c(c(=O)c4cccnc4n3CCN(CC)CC)c21 | 9.71 µM | 2.14 µM | > 5.81 µM | 3.38 µM | 3.33 µM | 4.62 µM | > 7.07 µM | 2.8 µM | 2.38 µM | 9.97 µM | 2.81 µM | 6.82 µM |
| CCOC(=O)c1ccc(N=C2SC(=S)N(c3ccc(F)cc3)C2=Nc2ccc(C(=O)OCC)cc2)cc1 | 37.8 µM | > 80.5 µM | 41.6 µM | > 89 µM | 47.3 µM | 42.2 µM | 38.7 µM | 23.3 µM | 25.1 µM | > 100 µM | 52.4 µM | 44.2 µM |
| CCN(CC)CCN1c2ccccc2Sc2ccc3ccccc3c21 | 22.7 µM | 6.86 µM | 22.9 µM | 29 µM | 15.7 µM | 23.6 µM | 23 µM | 9.5 µM | 10.2 µM | 29.6 µM | 19.9 µM | 22.5 µM |
| COC1/C=C/C(C)C(OC)CC(O)/C=C/C(C)C(C(C)C(OC)C(C)CCC(=O)C(C)C(C/C=C/N(C)C=O)OC)OC(=O)/C=C/C=C(\C)CC(OC)C(OC)C2=CC(=O)O[C@@H](C(C)C(OC)C1)[C@H]2O (some centres undefined) | 0.0526 µM | 0.0518 µM | 0.0613 µM | 0.0673 µM | – | 0.17 µM | 0.118 µM | 0.078 µM | 0.0763 µM | 0.244 µM | 0.0859 µM | 0.12 µM |
| COCCc1c(C)c(C#N)c2n(C)c3ccccc3n2c1=O | > 10 µM | > 10 µM | > 10 µM | > 10 µM | > 10 µM | > 10 µM | > 10 µM | > 10 µM | > 10 µM | > 10 µM | > 10 µM | > 10 µM |
| NS(=O)(=O)c1ccc(NNC(=O)c2cccc3c(=O)c4ccccc4[nH]c23)cc1 | > 100 µM | > 100 µM | > 100 µM | > 100 µM | > 100 µM | > 100 µM | > 100 µM | > 100 µM | > 100 µM | > 100 µM | > 100 µM | > 100 µM |
| COC(=O)N1CC[C@@H]2CCC=C(c3cccc4c3OCO4)[C@@H]21 | > 100 µM | > 100 µM | > 100 µM | > 100 µM | > 100 µM | > 100 µM | > 100 µM | > 100 µM | > 100 µM | > 100 µM | 62 µM | > 100 µM |
| CC(C)(C)OC(=O)N1C(C2=COc3ccccc3O2)=COc2ccccc21 | > 100 µM | 37.2 µM | 72.7 µM | 45.3 µM | 57 µM | 60.2 µM | 99.1 µM | 22.5 µM | 64.4 µM | > 100 µM | > 100 µM | > 100 µM |
| O=C1C(NS(=O)(=O)c2ccccc2)=C(n2cnc3ccccc32)C(=O)c2ccccc21 | > 100 µM | > 100 µM | > 100 µM | > 100 µM | > 100 µM | > 100 µM | > 100 µM | 98.2 µM | > 100 µM | > 100 µM | 85 µM | > 100 µM |
| Nn1c(CNc2ccc(-c3nnc(Nc4ccc(Cl)cc4)n3N)cc2)nnc1Nc1ccc(Cl)cc1 | > 100 µM | > 100 µM | > 100 µM | 93 µM | > 100 µM | > 100 µM | > 100 µM | > 100 µM | > 100 µM | > 100 µM | > 100 µM | > 100 µM |
| Oc1c(C(O)(c2ccccc2)c2ccc3ccccc3c2O)ccc2ccccc12 | 33.8 µM | 20 µM | 21.8 µM | 35.6 µM | 15.7 µM | 24 µM | 38.3 µM | 25.3 µM | 18 µM | 28.7 µM | 34.5 µM | 21.8 µM |
| COC(=O)C12CCC(C(=O)OC)(Cc3c(c4ccccc4n3S(=O)(=O)c3ccccc3)C1)C2=O (centres undefined) | > 100 µM | > 100 µM | > 26.5 µM | > 100 µM | > 100 µM | > 100 µM | > 94.6 µM | 24.1 µM | > 100 µM | > 100 µM | > 100 µM | > 100 µM |
| CCCCC1Cc2cc(O)ccc2-c2n1c1cc(O)ccc1[n+]2C (centres undefined) (tested in a mixture with another compound) | > 100 µM | > 100 µM | > 100 µM | > 100 µM | > 100 µM | > 72.7 µM | > 100 µM | > 90.3 µM | 22 µM | > 39.8 µM | > 100 µM | > 62.3 µM |
| COc1cc(N=C(N)N=C(N)N)c2ncccc2c1 | > 100 µM | > 100 µM | > 100 µM | > 100 µM | – | > 100 µM | > 100 µM | > 100 µM | > 100 µM | > 100 µM | > 100 µM | > 100 µM |
| CC1=C(C)C(=O)OC(C(C)(O)C2(O)CCC3(O)C4CC(Cl)C5(O)C(O)C=CC(=O)C5(C)C4CCC32C)C1 (centres undefined) | > 100 µM | > 100 µM | > 100 µM | > 100 µM | > 100 µM | > 100 µM | > 100 µM | 56.1 µM | – | > 100 µM | > 100 µM | > 100 µM |
| CC(C)OP(=O)(OC(C)C)C(C(F)(F)F)C(F)(F)F | > 100 µM | > 100 µM | > 100 µM | > 100 µM | > 100 µM | > 100 µM | > 100 µM | > 100 µM | > 100 µM | > 100 µM | > 100 µM | > 100 µM |
| O=C(O)CC(NC(=O)C(F)(F)F)C(=O)NC1Cc2ccccc2OC1=O (centres undefined) | > 100 µM | > 100 µM | – | > 100 µM | > 100 µM | > 100 µM | > 100 µM | > 100 µM | > 100 µM | > 100 µM | > 100 µM | > 100 µM |
| CCCCCCCCCc1cc(O)c(O)cc1CCCCCCCCC | > 10 µM | > 10 µM | > 10 µM | > 10 µM | > 10 µM | > 10 µM | > 10 µM | > 10 µM | > 10 µM | > 10 µM | > 10 µM | > 10 µM |
| C/C(Cl)=N\OC(=O)Nc1ccc([N+](=O)[O-])cc1 | 9.79 µM | 29.8 µM | 22.2 µM | > 100 µM | 4.22 µM | 5.73 µM | 30.8 µM | 30.4 µM | 31.2 µM | 33.1 µM | 31.4 µM | 33.8 µM |
| C/C(CC(O)(C(F)(F)F)C(F)(F)F)=N\N | > 10 µM | > 10 µM | > 10 µM | > 10 µM | > 10 µM | > 10 µM | > 10 µM | > 10 µM | > 10 µM | > 10 µM | > 10 µM | > 10 µM |
| COCCO | > 100 µM | > 100 µM | > 100 µM | > 100 µM | > 100 µM | > 100 µM | > 100 µM | > 100 µM | > 100 µM | > 100 µM | > 100 µM | > 100 µM |
| C=CCn1c2ccccc2c2c(C)c3cnccc3c(C)c21 | 6.75 µM | 104 µM | 46.9 µM | 36.3 µM | 52.2 µM | 62.6 µM | 69.9 µM | 24.5 µM | 56.9 µM | > 78.2 µM | 57.4 µM | 81.3 µM |
